# Measured values as given in patent publication US12208110B2 (priority 2020, dated 2025).
# Like-named read-outs stand apart in the source and are kept apart here.
# How the values were obtained:
# Assay type in all cases: cell-based
# [1] = system: RSV-Fluc (Recombinant Respiratory Syncytial virus strain A2 containing the firefly luciferase reporter); test: microbe, parasite or virus in culture; details: human respiratory syncytial virus, NHBE, 72 h, read-out: RSV-Fluc EC50 (nM, NHBE)
# [2] = system: SARS-CoV-2; test: microbe, parasite or virus in culture; details: Severe acute respiratory syndrome coronavirus 2, 48 h
# [3] = MT4 cytotoxicity analysis (CellTiter-Glo); details: human
# Description: Example 79: MT4 Cytotoxicity Analysis
# 3-fold serially diluted compound in DMSO, ranging from 2.5 uM to 10 mM, were added by acoustic transfer (Echo) in quadruplicate into black 384-well plates at 200 nl/well. After compound addition, 40 ul MT-4 cells at 80,000/ml were added to each well using a MicroFlo liquid dispenser (BioTek, Winooski, VT) and the cells were cultured for five days at 37° C. Following the incubation, cell viability was determined by adding 35 μL of CellTiter-Glo viability reagent and mixed thoroughly using ViaFlo 384 well workstation. The mixture was incubated for at least 10 minutes at 25° C., and the luminescence signal was quantified on an EnVision plate reader.
# [4] = MT-4 cells, five days, CellTiter-Glo, read-out: MT4 CC50
Compound,EC50 [1],EC50 [2],CC50 at 5 days ([3]; MT4 CC50 (nM)),"CC50 at 5 days [3, 4]"
"CCCCCCCCCCCCCCCCCSCCCOP(=O)(O)OC[C@H]1O[C@@](C#N)(c2ccc3c(N)ncnn23)[C@H](O)[C@@H]1O [Example 62, [(2R,3S,4R,5R)-5-(4-Aminopyrrolo[2,1-f][1,2,4]triazin-7-yl)-5-cyano-3,4-dihydroxy-tetrahydrofuran-2-yl]methyl 3-heptadecylsulfanylpropyl hydrogen phosphate]",230 nM,9.8 µM,24000 nM,–
"CCCCCCCCCCCCCCO[C@H](COCc1ccccc1)COP(=O)(O)OC[C@H]1O[C@@](C#N)(c2ccc3c(N)ncnn23)[C@H](O)[C@@H]1O [Example 24, ((2R,3S,4R,5R)-5-(4-Aminopyrrolo[2,1-f][1,2,4]triazin-7-yl)-5-cyano-3,4-dihydroxytetrahydrofuran-2-yl)methyl ((R)-3-(benzyloxy)-2-(tetradecyloxy)propyl) hydrogen phosphate]",73 nM,9.9 µM,–,35000 nM
"CCCCCCCCCCCCCCC#CC[C@H](COP(=O)(O)OC[C@H]1O[C@@](C#N)(c2ccc3c(N)ncnn23)[C@H](O)[C@@H]1O)OCc1ccccc1 [Example 73, ((2R,3S,4R,5R)-5-(4-aminopyrrolo[2,1-f][1,2,4]triazin-7-yl)-5-cyano-3,4-dihydroxytetrahydrofuran-2-yl)methyl ((R)-2-(benzyloxy)nonadec-4-yn-1-yl) hydrogen phosphate]",58 nM,0.43 µM,3500 nM,–
"CCCCCCCCCCCCCCCCCCOC[C@H](COP(=O)(O)OC[C@H]1O[C@@](C#N)(c2ccc3c(N)ncnn23)[C@H](O)[C@@H]1O)N1C(=O)c2ccccc2C1=O [Example 15, ((2R,3S,4R,5R)-5-(4-aminopyrrolo[2,1-f][1,2,4]triazin-7-yl)-5-cyano-3,4-dihydroxytetrahydrofuran-2-yl)methyl ((R)-2-(1,3-dioxoisoindolin-2-yl)-3-(octadecyloxy)propyl) hydrogen phosphate]",140 nM,2.5 µM,35000 nM,–
"CCCCCCCCCCCCCCCCCCOC[C@H](COP(=O)(O)OC[C@H]1O[C@@](C#N)(c2ccc3c(N)ncnn23)[C@H](O)[C@@H]1O)N1Cc2cc(Cl)c(Cl)cc2C1 [Example 9, ((2R,3S,4R,5R)-5-(4-aminopyrrolo[2,1-f][1,2,4]triazin-7-yl)-5-cyano-3,4-dihydroxytetrahydrofuran-2-yl)methyl ((R)-2-(5,6-dichloroisoindolin-2-yl)-3-(octadecyloxy)propyl) hydrogen phosphate]",490 nM,9 µM,20000 nM,–
"CCCCCCCCCCCCCCCCO[C@H](COCc1ccccc1)COP(=O)(O)OC[C@H]1O[C@@](C#N)(c2ccc3c(N)ncnn23)[C@H](O)[C@@H]1O [Example 23, ((2R,3S,4R,5R)-5-(4-aminopyrrolo[2,1-f][1,2,4]triazin-7-yl)-5-cyano-3,4-dihydroxytetrahydrofuran-2-yl)methyl ((R)-3-(benzyloxy)-2-(hexadecyloxy)propyl) hydrogen phosphate]",83 nM,10 µM,–,23000 nM
"CCCCCCCCCCCCCCCCCCOC[C@H](COP(=O)(O)OC[C@H]1O[C@@](C#N)(c2ccc3c(N)ncnn23)[C@H](O)[C@@H]1O)Nc1cccc(C#N)c1 [Example 16, ((2R,3S,4R,5R)-5-(4-aminopyrrolo[2,1-f][1,2,4]triazin-7-yl)-5-cyano-3,4-dihydroxytetrahydrofuran-2-yl)methyl ((R)-2-((3-cyanophenyl)amino)-3-(octadecyloxy)propyl) hydrogen phosphate]",100 nM,1.1 µM,1900 nM,–
"CCCCCCCCCCCCCCSCCCOP(=O)(O)OC[C@H]1O[C@@](C#N)(c2ccc3c(N)ncnn23)[C@H](O)[C@@H]1O [Example 61, [(2R,3S,4R,5R)-5-(4-aminopyrrolo[2,1-f][1,2,4]triazin-7-yl)-5-cyano-3,4-dihydroxy-tetrahydrofuran-2-yl]methyl 3-tetradecylsulfanylpropyl hydrogen phosphate]",200 nM,6.1 µM,12000 nM,–
"CCCCCCCCCCCCCCCCCCOC[C@H](COP(=O)(O)OC[C@H]1O[C@@](C#N)(c2ccc3c(N)ncnn23)[C@H](O)[C@@H]1O)N1Cc2ccccc2C1 [Example 1, ((2R,3S,4R,5R)-5-(4-aminopyrrolo[2,1-f][1,2,4]triazin-7-yl)-5-cyano-3,4-dihydroxytetrahydrofuran-2-yl)methyl ((R)-2-(isoindolin-2-yl)-3-(octadecyloxy)propyl) hydrogen phosphate]",570 nM,3.2 µM,20000 nM,–
"CCCCCCCCCCCCCCCCCCOC[C@H](COP(=O)(O)OC[C@H]1O[C@@](C#N)(c2ccc3c(N)ncnn23)[C@H](O)[C@@H]1O)SCc1ccccc1 [Example 7, ((2R,3S,4R,5R)-5-(4-aminopyrrolo[2,1-f][1,2,4]triazin-7-yl)-5-cyano-3,4-dihydroxytetrahydrofuran-2-yl)methyl ((R)-2-(benzylthio)-3-(octadecyloxy)propyl) hydrogen phosphate]",360 nM,10 µM,39000 nM,–
"CCCCCCCCCCCCCCCCCCNC(=O)[C@H](COP(=O)(O)OC[C@H]1O[C@@](C#N)(c2ccc3c(N)ncnn23)[C@H](O)[C@@H]1O)OCc1cc(F)cc(C#N)c1 [Example 47, ((2R,3S,4R,5R)-5-(4-aminopyrrolo[2,1-f][1,2,4]triazin-7-yl)-5-cyano-3,4-dihydroxytetrahydrofuran-2-yl)methyl ((S)-2-((3-cyano-5-fluorobenzyl)oxy)-3-(octadecylamino)-3-oxopropyl) hydrogen phosphate]",32 nM,0.12 µM,420 nM,–
"CCCCCCCCCCCCCCCCCCOC[C@H](COP(=O)(O)OC[C@H]1O[C@@](C#N)(c2ccc3c(N)ncnn23)[C@H](O)[C@@H]1O)OCc1ccc(F)c(Cl)c1F [Example 64, [(2R,3S,4R,5R)-5-(4-Aminopyrrolo[2,1-f][1,2,4]triazin-7-yl)-5-cyano-3,4-dihydroxy-tetrahydrofuran-2-yl]methyl [(2R)-2-[(3-chloro-2,4-difluoro-phenyl)methoxy]-3-octadecoxy-propyl] hydrogen phosphate]",86 nM,0.4 µM,3100 nM,–
"CCCCCCCCCCCCCCCCCCOCCOP(=O)(O)OC[C@H]1O[C@@](C#N)(c2ccc3c(N)ncnn23)[C@H](O)[C@@H]1O [Example 21, ((2R,3S,4R,5R)-5-(4-Aminopyrrolo[2,1-f][1,2,4]triazin-7-yl)-5-cyano-3,4-dihydroxytetrahydrofuran-2-yl)methyl (2-(octadecyloxy)ethyl) hydrogen phosphate]",250 nM,9.1 µM,–,2300 nM
"CCCCCCCCCCCCCCCCCCOC[C@H](COP(=O)(O)OC[C@H]1O[C@@](C#N)(c2ccc3c(N)ncnn23)[C@H](O)[C@@H]1O)Oc1c(C#N)cc(C)cc1C#N [Example 29, ((2R,3S,4R,5R)-5-(4-aminopyrrolo[2,1-f][1,2,4]triazin-7-yl)-5-cyano-3,4-dihydroxytetrahydrofuran-2-yl)methyl ((R)-2-(2,6-dicyano-4-methylphenoxy)-3-(octadecyloxy)propyl) hydrogen phosphate]",70 nM,2.7 µM,500 nM,–
